Experiments:
[1] = system: KG-1 cell line; assay: KG-1 cell proliferation, CellTiter-Glo assay; type: cell-based; settings: Homo sapiens; KG-1 cells, 72 hours post-treatment; read-out: FCA Prolif Cell TiterGlo KG-1 72 h (IC50)
Procedure: (§1) The anti-proliferative activity of the test compounds was evaluated on KG-1 and KG-1a cell lines using CellTiter-Glo assay as described in U.S. Pat. No. 9,499,514 at 72 hours post-treatment.

[2] = system: KG-1a cell line; assay: KG-1a cell proliferation, CellTiter-Glo assay; type: cell-based; settings: Homo sapiens; KG-1a cells, 72 hours post-treatment; read-out: FCA Prolif Cell TiterGlo KG-1a 72 h (IC50)
Procedure: as §1

Row | Compound | IC50 [1] [nM] | IC50 [2] [nM]
1 | [2H]c1cc(C(F)(F)C(=O)NCc2ccc3c(c2)CN(C2CCC(=O)NC2=O)C3=O)ccc1Cl (stereo not drawn) | 15.5 | 18.1
2 | [2H]c1cc(Cl)ccc1C(F)(F)C(=O)NCc1ccc2c(c1)CN(C1CCC(=O)NC1=O)C2=O (stereo not drawn) | 36.9 | 29.9
3 | [2H]c1c([2H])c(C(F)(F)C(=O)NCc2ccc3c(c2)CN(C2CCC(=O)NC2=O)C3=O)c([2H])c([2H])c1Cl (stereo not drawn) | 26.2 | 31.3
